Test results taken from PubChem BioAssay AID1259407 (Chemical Carcinogenesis Research Information System (CCRIS), 2018).
Activity calls are given as the source filed them. How the calls were made is not given here.

Test system: CCRIS mutagenicity, Ames/micronucleus/aberration tests
Experiment: CCRIS mutagenicity studies
[1] = Test System: AMES SALMONELLA TYPHIMURIUM, Strain/Indicator: TA98, Metabolic Activation: NONE, Method: STANDARD PLATE
[2] = Test System: AMES SALMONELLA TYPHIMURIUM, Strain/Indicator: TA98, Metabolic Activation: RAT, LIVER, S-9, AROCLOR 1254, Method: STANDARD PLATE
[3] = Test System: AMES SALMONELLA TYPHIMURIUM, Strain/Indicator: TA100, Metabolic Activation: NONE, Method: STANDARD PLATE
[4] = Test System: AMES SALMONELLA TYPHIMURIUM, Strain/Indicator: TA100, Metabolic Activation: RAT, LIVER, S-9, AROCLOR 1254, Method: STANDARD PLATE
[5] = Test System: AMES SALMONELLA TYPHIMURIUM, Strain/Indicator: TA98, Metabolic Activation: NONE, Method: PREINCUBATION
[6] = Test System: AMES SALMONELLA TYPHIMURIUM, Strain/Indicator: TA100, Metabolic Activation: NONE, Method: PREINCUBATION
[7] = Test System: AMES SALMONELLA TYPHIMURIUM, Strain/Indicator: TA1537, Metabolic Activation: NONE, Method: STANDARD PLATE
[8] = Test System: AMES SALMONELLA TYPHIMURIUM, Strain/Indicator: TA1538, Metabolic Activation: NONE, Method: STANDARD PLATE
[9] = Test System: CHINESE HAMSTER V-79, Strain/Indicator: V-79/6-THIOGUANINE, Metabolic Activation: NONE, Method: STANDARD PLATE

COc1ccc([C@H]2O[C@H]2C(=O)c2ccccc2)cc1
mutagenic call [1]: inactive; negative | mutagenic call [2]: inactive; negative | mutagenic call [3]: active; positive | mutagenic call [4]: active; positive

C[C@H](N)C(=O)c1ccccc1
mutagenic call (End Point: In vivo chromosomal aberrations, Test System: Blood from cardiac puncture, Species: Rat, Strain/Sex: Sprague-Dawley/Male, Route: Oral): active; positive (high dose significantly different from control and low dose)

CCOC(=O)c1cc(Cc2ccc(N)c(C(=O)OCC)c2)ccc1N
mutagenic call [5]: inactive; negative | mutagenic call (Test System: AMES SALMONELLA TYPHIMURIUM, Strain/Indicator: TA98, Metabolic Activation: RAT, LIVER, S-9, PCB, Method: PREINCUBATION): inactive; negative | mutagenic call [6]: inactive; negative

O=C(c1ccccc1)C1OC1c1ccc(Oc2ccccc2)cc1 (stereo unspecified)
mutagenic call [1]: inactive; negative | mutagenic call [2]: inactive; negative | mutagenic call [3]: inactive; negative | mutagenic call [4]: inactive; negative

NNc1nnc(NN)c2ccccc12
mutagenic call (Test System: AMES SALMONELLA TYPHIMURIUM, Strain/Indicator: TA97, Metabolic Activation: NONE, Method: STANDARD PLATE): active; positive | mutagenic call [2]: active; positive | mutagenic call [4]: inactive; negative | mutagenic call (Test System: AMES SALMONELLA TYPHIMURIUM, Strain/Indicator: TA102, Metabolic Activation: NONE, Method: STANDARD PLATE): active; positive | mutagenic call (Test System: AMES SALMONELLA TYPHIMURIUM, Strain/Indicator: TA104, Metabolic Activation: NONE, Method: STANDARD PLATE): inactive; negative | mutagenic call (Test System: AMES SALMONELLA TYPHIMURIUM, Strain/Indicator: TA1535, Metabolic Activation: RAT, LIVER, S-9, AROCLOR 1254, Method: STANDARD PLATE): inactive; negative | mutagenic call [7]: active; positive | mutagenic call (Test System: AMES SALMONELLA TYPHIMURIUM, Strain/Indicator: TA1537, Metabolic Activation: RAT, LIVER, S-9, AROCLOR 1254, Method: STANDARD PLATE): active; positive | mutagenic call [8]: active; positive

C1=CC2OC2c2cccnc21 (stereo unspecified)
mutagenic call [3]: inactive; negative | mutagenic call (Test System: AMES SALMONELLA TYPHIMURIUM, Strain/Indicator: TA100, Metabolic Activation: RAT, LIVER, S-9, AROCLOR 1254 (10% OR 20%), Method: STANDARD PLATE): inactive; negative

Fc1ccc(CN2C3c4ccccc4-c4ccccc4C32)cc1 (stereo unspecified)
mutagenic call [3]: active; positive

N[C@@H](CSCc1ccccc1)C(=O)O
mutagenic call [5]: inactive; negative | mutagenic call (Test System: AMES SALMONELLA TYPHIMURIUM, Strain/Indicator: TA98, Metabolic Activation: RAT, LIVER OR KIDNEY, MICROSOMES, Method: PREINCUBATION): inactive; negative | mutagenic call [6]: inactive; negative | mutagenic call (Test System: AMES SALMONELLA TYPHIMURIUM, Strain/Indicator: TA100, Metabolic Activation: RAT, LIVER OR KIDNEY, MICROSOMES, Method: PREINCUBATION): inactive; negative | mutagenic call (Test System: AMES SALMONELLA TYPHIMURIUM, Strain/Indicator: TA102, Metabolic Activation: NONE, Method: PREINCUBATION): inactive; negative | mutagenic call (Test System: AMES SALMONELLA TYPHIMURIUM, Strain/Indicator: TA102, Metabolic Activation: RAT, LIVER OR KIDNEY, MICROSOMES, Method: PREINCUBATION): inactive; negative | mutagenic call (Test System: AMES SALMONELLA TYPHIMURIUM, Strain/Indicator: TA2638, Metabolic Activation: NONE, Method: PREINCUBATION): inactive; negative | mutagenic call (Test System: AMES SALMONELLA TYPHIMURIUM, Strain/Indicator: TA2638, Metabolic Activation: RAT, LIVER OR KIDNEY, MICROSOMES, Method: PREINCUBATION): inactive; negative

C=CCN1C2c3ccccc3-c3ccccc3C21 (stereo unspecified)
mutagenic call [3]: active; positive | mutagenic call [9]: active; positive

C1=Cc2c(ccc3ccc4ccccc4c23)C1
mutagenic call [4]: active; positive

CCN(CC)c1ccc(N=Nc2ccc(N=Nc3c(S(=O)(=O)O)cc4ccc(N)cc4c3O)c(OCCO)c2)cc1
mutagenic call [1]: inactive; negative | mutagenic call [2]: active; positive | mutagenic call [3]: inactive; negative | mutagenic call [4]: inactive; negative | mutagenic call [8]: inactive; negative | mutagenic call (Test System: AMES SALMONELLA TYPHIMURIUM, Strain/Indicator: TA1538, Metabolic Activation: RAT, LIVER, S-9, AROCLOR 1254, Method: STANDARD PLATE): active; positive

O=c1c(O)c2c(c3c1ccc1[nH]c4c(ccc5ccccc54)cc13)O2
mutagenic call (Test System: AMES SALMONELLA TYPHIMURIUM, Strain/Indicator: TA98, Metabolic Activation: RAT, LIVER, AROCLOR 1254, NADPH GENERATING SYSTEM, Method: STANDARD PLATE): inactive; negative | mutagenic call (Test System: AMES SALMONELLA TYPHIMURIUM, Strain/Indicator: TA100, Metabolic Activation: RAT, LIVER, AROCLOR 1254, NADPH GENERATING SYSTEM, Method: STANDARD PLATE): inactive; negative | mutagenic call (Test System: CHINESE HAMSTER V-79, Strain/Indicator: V-79/8-AZAGUANINE, Method: STANDARD PLATE): inactive; negative

CN(C)CCCNc1c2ccccc2nc2ccccc12
mutagenic call (Test System: AMES SALMONELLA TYPHIMURIUM, Strain/Indicator: TA98(1,8-DNP6), Metabolic Activation: NONE, Method: STANDARD PLATE): inactive; negative | mutagenic call (Test System: AMES SALMONELLA TYPHIMURIUM, Strain/Indicator: TA98(1,8-DNP6), Metabolic Activation: RAT, LIVER, S-9, Method: STANDARD PLATE): inactive; negative | mutagenic call (Test System: AMES SALMONELLA TYPHIMURIUM, Strain/Indicator: TA98(NR), Metabolic Activation: NONE, Method: STANDARD PLATE): inactive; negative | mutagenic call (Test System: AMES SALMONELLA TYPHIMURIUM, Strain/Indicator: TA98(NR), Metabolic Activation: RAT, LIVER, S-9, Method: STANDARD PLATE): active; positive | mutagenic call [1]: inactive; negative | mutagenic call (Test System: AMES SALMONELLA TYPHIMURIUM, Strain/Indicator: TA98, Metabolic Activation: RAT, LIVER, S-9, Method: STANDARD PLATE): inactive; negative | mutagenic call [3]: inactive; negative | mutagenic call (Test System: AMES SALMONELLA TYPHIMURIUM, Strain/Indicator: TA1535, Metabolic Activation: NONE, Method: STANDARD PLATE): inactive; negative | mutagenic call [7]: active; positive | mutagenic call (Test System: AMES SALMONELLA TYPHIMURIUM, Strain/Indicator: TA1537 PKM101, Metabolic Activation: NONE, Method: STANDARD PLATE): active; positive | mutagenic call [8]: active; positive | mutagenic call [9]: inactive; negative | mutagenic call (Test System: CHINESE HAMSTER V-79, Strain/Indicator: V-79/OUABAIN, Metabolic Activation: NONE, Method: STANDARD PLATE): inactive; negative | mutagenic call (Test System: Escherichia coli, Strain/Indicator: CC107 (G6 to G7 frameshifts), Metabolic Activation: None, Method: Modified preincubation): active; positive | mutagenic call (Test System: Escherichia coli, Strain/Indicator: CC108 (G6 to G5 frameshifts), Metabolic Activation: None, Method: Modified preincubation): active; positive | mutagenic call (Test System: Escherichia coli, Strain/Indicator: CC109 (CG5 to CG4 frameshifts), Metabolic Activation: None, Method: Modified preincubation): active; positive | mutagenic call (Test System: Escherichia coli, Strain/Indicator: CC111 (A7 to A6 frameshifts), Metabolic Activation: None, Method: Modified preincubation): active; positive
